Measurements published in PubChem BioAssay AID1918958 (Molecular Pharmacology Branch, DTP, NCI, 2023).
pIC50: −log10 of the molar value.

Test system: NCI-H196 complex spheroid viability
Assay: Anticancer human tumor NCI-H196 cell line growth inhibition [LSD1];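 further: spheroids exposed to agents for 7 days before readout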;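 on viability, T/C: 100% = DMSO vehicle control viability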
Conditions: for pIC50: curve of first compound; for viability, T/C: stronger effect = lower value
Summary of the method: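 Multicellular complex spheroids of tumor cells with human endothelial cells (HUVEC) and mesenchymal stem cells; the LSD1 inhibitor iadademstat was combined with standard-of-care or investigational agents. Top concentration at or near clinical Cmax, half-log dilutions; final DMSO ≤0.25%.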

[1] = second compound 0.1 µM, first compound 0.00949 µM
[2] = second compound 0.1 µM, first compound 0.03 µM
[3] = second compound 0.1 µM, first compound 0.0949 µM
[4] = second compound 0.1 µM, first compound 0.3 µM
[5] = second compound 0.316 µM, first compound 0.00949 µM
[6] = second compound 0.316 µM, first compound 0.03 µM
[7] = second compound 0.316 µM, first compound 0.0949 µM
[8] = second compound 0.316 µM, first compound 0.3 µM
[9] = second compound 1 µM, first compound 0.00949 µM
[10] = second compound 1 µM, first compound 0.03 µM
[11] = second compound 1 µM, first compound 0.0949 µM
[12] = second compound 1 µM, first compound 0.3 µM
[13] = second compound 3.16 µM, first compound 0.00949 µM
[14] = second compound 3.16 µM, first compound 0.03 µM
[15] = second compound 3.16 µM, first compound 0.0949 µM
[16] = second compound 3.16 µM, first compound 0.3 µM
[17] = second compound 10 µM, first compound 0.00949 µM
[18] = second compound 10 µM, first compound 0.03 µM
[19] = second compound 10 µM, first compound 0.0949 µM
[20] = second compound 10 µM, first compound 0.3 µM

| SMILES | pIC50 (second compound 0.1 µM) | pIC50 (second compound 0.316 µM) | pIC50 (second compound 1 µM) | pIC50 (second compound 3.16 µM) | pIC50 (second compound 10 µM) | viability, T/C [1] [%] | viability, T/C [2] [%] | viability, T/C [3] [%] | viability, T/C [4] [%] | viability, T/C [5] [%] | viability, T/C [6] [%] | viability, T/C [7] [%] | viability, T/C [8] [%] | viability, T/C [9] [%] | viability, T/C [10] [%] | viability, T/C [11] [%] | viability, T/C [12] [%] | viability, T/C [13] [%] | viability, T/C [14] [%] | viability, T/C [15] [%] | further results |
| --- | --- | --- | --- | --- | --- | --- | --- | --- | --- | --- | --- | --- | --- | --- | --- | --- | --- | --- | --- | --- | --- |
| CCN(c1cc(-c2ccc(CN3CCOCC3)cc2)cc(C(=O)NCc2c(C)cc(C)[nH]c2=O)c1C)C1CCOCC1 + NC1CCC(NC2CC2c2ccccc2)CC1 | < 5.52 | < 5.52 | < 5.52 | < 5.52 | < 5.52 | 100 | 95.6 | 93.1 | 103 | 99.5 | 93.8 | 101 | 100 | 92.5 | 93 | 98.7 | 95.2 | 87.8 | 91.4 | 95.3 | viability, T/C (second compound 0.1 µM, first compound 0.949 µM): 96.4%; viability, T/C (second compound 0.1 µM, first compound 3 µM): 101%; viability, T/C (second compound 0.316 µM, first compound 0.949 µM): 104%; viability, T/C (second compound 0.316 µM, first compound 3 µM): 110%; viability, T/C (second compound 1 µM, first compound 0.949 µM): 99.6%; viability, T/C (second compound 1 µM, first compound 3 µM): 103%; viability, T/C [16]: 95.6%; viability, T/C (second compound 3.16 µM, first compound 0.949 µM): 91.6%; viability, T/C (second compound 3.16 µM, first compound 3 µM): 99.9%; viability, T/C [17]: 104%; viability, T/C [18]: 93.3%; viability, T/C [19]: 94.6%; viability, T/C [20]: 105%; viability, T/C (second compound 10 µM, first compound 0.949 µM): 86.7%; viability, T/C (second compound 10 µM, first compound 3 µM): 101% |
| Nc1ncn(C2CC(O)C(CO)S2)c(=O)n1 (stereo not given) + NC1CCC(NC2CC2c2ccccc2)CC1 | < 6.52 | < 6.52 | < 6.52 | < 6.52 | < 6.52 | 121 | 118 | 122 | 118 | 108 | 114 | 112 | 127 | 113 | 109 | 109 | 110 | 105 | 124 | 107 | viability, T/C (second compound 0.1 µM, first compound 0.000949 µM): 112%; viability, T/C (second compound 0.1 µM, first compound 0.003 µM): 104%; viability, T/C (second compound 0.316 µM, first compound 0.000949 µM): 103%; viability, T/C (second compound 0.316 µM, first compound 0.003 µM): 102%; viability, T/C (second compound 1 µM, first compound 0.000949 µM): 93.7%; viability, T/C (second compound 1 µM, first compound 0.003 µM): 105%; viability, T/C (second compound 3.16 µM, first compound 0.000949 µM): 96.4%; viability, T/C (second compound 3.16 µM, first compound 0.003 µM): 106%; viability, T/C [16]: 108%; viability, T/C (second compound 10 µM, first compound 0.000949 µM): 108%; viability, T/C (second compound 10 µM, first compound 0.003 µM): 105%; viability, T/C [17]: 113%; viability, T/C [18]: 118%; viability, T/C [19]: 111%; viability, T/C [20]: 106% |
